Five molecules from patent US4310682A, “Halo-salicylanilide” (priority 1979, dated 1982) can be followed below.

Common to all, as to type: cell-based
Test [1] has as its system Candida albicans ATCC 10259. Briefly: MIC, Sabouraud agar medium containing the compound. The conditions noted are these: fungus No. 5, 20° C., 14 days. The procedure:
(§1) In order to test antifungal and bactericidal activity of halo-salicylanilide obtained in above mentioned Examples, following bacteria and fungi are employed.
No. 5 Candida albicans ATCC 10259
(§2) Bacteria No. 1 to No. 4 are respectively cultured in Hart Infusion bouillon medium at 37° C. for 20 hours and resulting medium liquids are employed for said test. Fungi No. 5 to No. 7 are respectively cultured in Sabouraud agar medium and 10^6 cell/ml of cell dispersing liquids obtained from said medium are employed for said test.

For test [2], the system named is Pseudomonas aeruqinosa NC-5. Briefly: MIC, agar medium containing the compound. The conditions noted are these: bacterium No. 2, 37° C., 4 hours. Here is the method:
as §1
No. 2 Pseudomonas aeruqinosa NC-5
as §2

The test system of test [3] is Trichophyton rubrum IFO 9185. Briefly: MIC, Sabouraud agar medium containing the compound. The conditions noted are these: fungus No. 7, 20° C., 14 days. Here is the method:
as §1
No. 7 Trichophyton rubrum IFO 9185
as §2

Test [4] relates to Escherichia coli NIHJ JC-2. Briefly: MIC, agar medium containing the compound. Particulars: bacterium No. 1, 37° C., 4 hours. The procedure: as §1
No. 1 Escherichia coli NIHJ JC-2
as §2

The test system of test [5] is Aspergillus flavus IFO 8558. Briefly: MIC, Sabouraud agar medium containing the compound. Particulars: fungus No. 6, 20° C., 14 days. Here is the method: as §1
No. 6 Aspergillus flavus IFO 8558
as §2

Test [6] deals with Candida albicans ATCC 10259. Briefly: Multiplying state after removal to compound-free medium (scanning electron microscope). Particulars: for multiplying state of the fungi after removal to culture medium without the compound: first cultured in medium containing the compound, then removed, FIG. 1 and FIG. 2.
In test [7] the test system is Staphylococcus aureus FDA-209-P. Briefly: MIC, agar medium containing the compound. The conditions noted are these: bacterium No. 3, 37° C., 4 hours. Here is the method: as §1
No. 3 Staphylococcus aureus FDA-209-P
as §2

The test system of test [8] is Bacillus subtilis PCI-219. Briefly: MIC, agar medium containing the compound. The conditions noted are these: bacterium No. 4, 37° C., 4 hours. The procedure:
as §1
No. 4 Bacillus subtilis PCI-219
as §2

Test [9] concerns bacteria No. 1 to No. 4 and fungi No. 5 to No. 7. Briefly: Antifungal and bactericidal activity test, overall assessment of Table 8. Particulars: referring to Table 8. Here is the method: as §1, §2
Referring now to Table 8, in said Examples the halo-salicylanilides provided have respectively remarkable higher antifungal and bactericidal activity than that of the contrasts proposed and said halo-salicylanilidesare especially effective on bacteria No. 3 and No. 4, and fungi No. 5, No. 6 and No. 7. This testifies that alkyl group of 2'-position of the halo-salicylanilides is significant for the activities of the compound. […] Especially the halo-salicylanilides having fluorine in 5-position are very useful for agricultural medicines.

As to `O=C(Nc1ccc(Cl)cc1)c1cc(I)cc(I)c1O` [Contrast No. 2, reference compound], the “MIC (Minimum Inhibitory Concentration)” value is listed as 50 in test [1]; greater than 100 in test [2]; 50 in [3]; greater than 100 in test [4]; greater than 100 in test [5]. Also, in test [6], the “multiplying state of the fungi after removal to culture medium without the compound” value was “again starts to multiply”.

Turning to `Cc1cc(Cl)ccc1NC(=O)c1cc(I)ccc1O` [compound 3, 5-iodo-2'-methyl-4'-chloro salicylanilide], the “MIC (Minimum Inhibitory Concentration)” value in test [1] is 6.3; in test [3] it was 6.3; in [4], greater than 100; in test [7], 0.75; in [5], 6.3; in test [8] it was 1.5. The “multiplying state of the fungi after removal to culture medium without the compound” value in test [6] was “does not start to multiply”. Moreover, in test [6] (scanning electron microscope, FIG. 2), the “destruction of the cell membranes of the fungi” value is “destruction of the cell membranes of the fungi is observed”. For the same molecule, the “antifungal and bactericidal activity (assessment in words)” value (“antifungal and bactericidal activity” for short) in test [9] is “remarkable antifungal and bactericidal activity”.

For `Cc1cc(Br)ccc1NC(=O)c1cc(I)ccc1O` [compound 5, 5-iodo-2'-methyl-4'-bromo salicylanilide], the “MIC (Minimum Inhibitory Concentration)” value in test [1] is 3.2; in test [3], 3.2; in test [4], greater than 100; in test [7], 0.37; in test [5] it was 3.2; in [8], 0.75. The “antifungal and bactericidal activity” value in [9] is “remarkable antifungal and bactericidal activity”.

In the case of `CCc1cc(Cl)ccc1NC(=O)c1cc(I)ccc1O` [compound 6, 5-iodo-2'-ethyl-4'-chloro salicylanilide], the “MIC (Minimum Inhibitory Concentration)” value is recorded as 6.3 in [1]; 3.2 in [3]; greater than 100 in [4]; 0.75 in [7]; 3.2 in test [5]; 0.75 in test [8]. In addition, in [9], the “antifungal and bactericidal activity” value is “remarkable antifungal and bactericidal activity”.

Turning to `CC(=O)Oc1ccc(I)cc1C(=O)Nc1ccc(Br)cc1C` [compound 13, 5-iodo-2'-methyl-4'-bromo acetylsalicylanilide], the “MIC (Minimum Inhibitory Concentration)” value in [1] is given as 100; in test [2] it was 100; in test [3], 12.5; in test [4], greater than 100; in test [7], 0.2; in test [8] it was 0.4. In addition, the “antifungal and bactericidal activity” value in test [9] was “remarkable antifungal and bactericidal activity”.
